Remaining binding data for three compounds are collected here from patent publication US11208412B2 (DAEGU-GYEONGBUK MEDICAL INNOVATION FOUNDATION, priority 2017, dated 2021).

Experiment in all cases: Kinase selectivity, DiscoverX scanMAX Kinase assay panel (% control)
What all share (format): binding

For assay [1], the target named is T1, kinases of the scanMAX Kinase assay panel (Homo sapiens, UniProt Q9UK32).
T1 construct: purchased DiscoverX Co. (contract measurement) scanMAX Kinase assay panel
T1 sequence (Q9UK32 whole entry): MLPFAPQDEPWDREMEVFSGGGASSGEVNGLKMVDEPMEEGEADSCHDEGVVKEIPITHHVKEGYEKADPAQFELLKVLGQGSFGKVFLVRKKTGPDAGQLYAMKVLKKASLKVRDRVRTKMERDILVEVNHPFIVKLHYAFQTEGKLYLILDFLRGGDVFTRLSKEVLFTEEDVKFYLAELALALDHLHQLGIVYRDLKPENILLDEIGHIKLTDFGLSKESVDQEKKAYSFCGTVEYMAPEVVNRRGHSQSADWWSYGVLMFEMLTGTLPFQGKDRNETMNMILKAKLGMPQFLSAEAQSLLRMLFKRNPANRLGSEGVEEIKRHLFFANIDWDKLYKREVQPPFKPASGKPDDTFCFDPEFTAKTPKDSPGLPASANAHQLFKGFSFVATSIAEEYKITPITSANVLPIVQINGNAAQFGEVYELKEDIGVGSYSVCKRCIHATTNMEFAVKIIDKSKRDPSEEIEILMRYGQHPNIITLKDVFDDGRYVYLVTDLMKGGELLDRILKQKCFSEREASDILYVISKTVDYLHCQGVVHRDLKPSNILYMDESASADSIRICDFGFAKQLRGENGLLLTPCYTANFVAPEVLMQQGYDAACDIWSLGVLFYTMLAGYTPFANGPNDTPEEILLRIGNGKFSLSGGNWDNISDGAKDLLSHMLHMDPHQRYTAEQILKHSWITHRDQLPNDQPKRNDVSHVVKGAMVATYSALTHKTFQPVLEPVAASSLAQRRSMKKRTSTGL
Particulars: 1 uM in DMSO. An outline of the steps:
(§1)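 A 1 uM DMSO solution of compound was applied across the panel kinases, and results were expressed as % control relative to DMSO (100%) and a positive control (0%).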

Assay [2] deals with T2, kinases of the scanMAX Kinase assay panel (Homo sapiens, UniProt Q13705).
T2 construct: purchased DiscoverX Co. (contract measurement) scanMAX Kinase assay panel
T2 sequence (Q13705 19-512): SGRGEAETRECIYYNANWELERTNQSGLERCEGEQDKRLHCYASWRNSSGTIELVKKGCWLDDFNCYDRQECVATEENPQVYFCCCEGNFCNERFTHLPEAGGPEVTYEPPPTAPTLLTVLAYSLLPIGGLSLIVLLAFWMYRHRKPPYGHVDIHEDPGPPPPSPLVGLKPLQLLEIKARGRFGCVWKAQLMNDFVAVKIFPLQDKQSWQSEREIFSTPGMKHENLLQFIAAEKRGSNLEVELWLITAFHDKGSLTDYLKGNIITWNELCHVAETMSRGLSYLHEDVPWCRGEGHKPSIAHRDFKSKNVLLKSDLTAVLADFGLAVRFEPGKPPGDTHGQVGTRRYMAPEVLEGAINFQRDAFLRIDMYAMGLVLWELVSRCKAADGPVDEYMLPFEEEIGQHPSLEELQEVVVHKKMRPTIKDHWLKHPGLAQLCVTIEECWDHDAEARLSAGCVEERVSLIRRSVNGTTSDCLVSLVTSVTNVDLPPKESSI
Particulars: ACVR2B; 1 uM. The method, boiled down:
as §1

In assay [3] the target is T3, kinases of the scanMAX Kinase assay panel (Homo sapiens, UniProt Q13237).
T3 construct: purchased DiscoverX Co. (contract measurement) scanMAX Kinase assay panel
T3 sequence (Q13237 1-762): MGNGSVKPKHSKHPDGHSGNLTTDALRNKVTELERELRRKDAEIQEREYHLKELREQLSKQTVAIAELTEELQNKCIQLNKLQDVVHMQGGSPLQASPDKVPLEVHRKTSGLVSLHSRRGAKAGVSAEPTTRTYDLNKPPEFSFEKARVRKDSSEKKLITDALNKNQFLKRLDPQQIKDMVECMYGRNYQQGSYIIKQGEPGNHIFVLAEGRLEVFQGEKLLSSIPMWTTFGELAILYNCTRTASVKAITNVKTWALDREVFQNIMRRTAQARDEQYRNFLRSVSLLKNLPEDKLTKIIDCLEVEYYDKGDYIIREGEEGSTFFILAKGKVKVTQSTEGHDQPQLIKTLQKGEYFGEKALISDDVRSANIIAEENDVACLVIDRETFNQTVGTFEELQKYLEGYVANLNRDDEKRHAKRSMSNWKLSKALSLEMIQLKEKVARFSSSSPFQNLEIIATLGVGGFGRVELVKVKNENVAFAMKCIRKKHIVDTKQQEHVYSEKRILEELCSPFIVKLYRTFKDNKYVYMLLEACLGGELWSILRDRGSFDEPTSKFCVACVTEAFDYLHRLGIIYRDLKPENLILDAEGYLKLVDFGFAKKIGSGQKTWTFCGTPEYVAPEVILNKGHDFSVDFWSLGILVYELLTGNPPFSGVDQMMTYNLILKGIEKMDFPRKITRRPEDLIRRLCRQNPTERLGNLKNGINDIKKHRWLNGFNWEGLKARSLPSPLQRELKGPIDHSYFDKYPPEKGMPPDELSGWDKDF
Conditions: PRKG2; 1 uM. An outline of the steps:
as §1

Assay [4] deals with T4, kinases of the scanMAX Kinase assay panel (Homo sapiens, UniProt O14936).
T4 construct: purchased DiscoverX Co. (contract measurement) scanMAX Kinase assay panel
T4 sequence (O14936 1-926): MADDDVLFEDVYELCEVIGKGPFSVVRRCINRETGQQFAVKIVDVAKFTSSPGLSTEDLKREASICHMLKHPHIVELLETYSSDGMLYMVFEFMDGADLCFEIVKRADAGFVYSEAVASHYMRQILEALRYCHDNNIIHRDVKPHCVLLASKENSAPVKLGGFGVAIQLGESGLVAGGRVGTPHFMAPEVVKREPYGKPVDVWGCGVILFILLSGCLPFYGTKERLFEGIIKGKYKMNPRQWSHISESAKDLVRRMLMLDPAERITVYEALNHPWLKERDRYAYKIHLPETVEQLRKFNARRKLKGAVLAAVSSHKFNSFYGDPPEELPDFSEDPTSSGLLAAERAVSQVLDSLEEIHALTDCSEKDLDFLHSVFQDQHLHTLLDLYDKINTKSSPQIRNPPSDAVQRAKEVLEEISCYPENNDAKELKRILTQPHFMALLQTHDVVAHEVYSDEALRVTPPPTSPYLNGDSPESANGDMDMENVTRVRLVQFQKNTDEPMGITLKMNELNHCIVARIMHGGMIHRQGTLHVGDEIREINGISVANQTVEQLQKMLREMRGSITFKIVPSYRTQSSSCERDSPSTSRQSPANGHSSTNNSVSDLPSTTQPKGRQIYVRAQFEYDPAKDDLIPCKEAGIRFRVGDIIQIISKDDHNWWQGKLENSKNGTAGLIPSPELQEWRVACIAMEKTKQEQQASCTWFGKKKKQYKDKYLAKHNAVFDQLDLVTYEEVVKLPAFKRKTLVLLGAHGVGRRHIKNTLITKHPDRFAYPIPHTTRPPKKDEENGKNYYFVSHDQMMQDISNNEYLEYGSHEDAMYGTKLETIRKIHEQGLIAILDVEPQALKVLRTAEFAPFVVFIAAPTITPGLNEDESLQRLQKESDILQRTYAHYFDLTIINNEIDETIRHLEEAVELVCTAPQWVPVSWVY
Conditions: CASK; 1 uM. An outline of the steps:
as §1

The target of assay [5] is T5, kinases of the scanMAX Kinase assay panel (Homo sapiens, UniProt P42336, E545K).
T5 construct: purchased DiscoverX Co. (contract measurement) scanMAX Kinase assay panel
T5 sequence (P42336 whole entry E545K): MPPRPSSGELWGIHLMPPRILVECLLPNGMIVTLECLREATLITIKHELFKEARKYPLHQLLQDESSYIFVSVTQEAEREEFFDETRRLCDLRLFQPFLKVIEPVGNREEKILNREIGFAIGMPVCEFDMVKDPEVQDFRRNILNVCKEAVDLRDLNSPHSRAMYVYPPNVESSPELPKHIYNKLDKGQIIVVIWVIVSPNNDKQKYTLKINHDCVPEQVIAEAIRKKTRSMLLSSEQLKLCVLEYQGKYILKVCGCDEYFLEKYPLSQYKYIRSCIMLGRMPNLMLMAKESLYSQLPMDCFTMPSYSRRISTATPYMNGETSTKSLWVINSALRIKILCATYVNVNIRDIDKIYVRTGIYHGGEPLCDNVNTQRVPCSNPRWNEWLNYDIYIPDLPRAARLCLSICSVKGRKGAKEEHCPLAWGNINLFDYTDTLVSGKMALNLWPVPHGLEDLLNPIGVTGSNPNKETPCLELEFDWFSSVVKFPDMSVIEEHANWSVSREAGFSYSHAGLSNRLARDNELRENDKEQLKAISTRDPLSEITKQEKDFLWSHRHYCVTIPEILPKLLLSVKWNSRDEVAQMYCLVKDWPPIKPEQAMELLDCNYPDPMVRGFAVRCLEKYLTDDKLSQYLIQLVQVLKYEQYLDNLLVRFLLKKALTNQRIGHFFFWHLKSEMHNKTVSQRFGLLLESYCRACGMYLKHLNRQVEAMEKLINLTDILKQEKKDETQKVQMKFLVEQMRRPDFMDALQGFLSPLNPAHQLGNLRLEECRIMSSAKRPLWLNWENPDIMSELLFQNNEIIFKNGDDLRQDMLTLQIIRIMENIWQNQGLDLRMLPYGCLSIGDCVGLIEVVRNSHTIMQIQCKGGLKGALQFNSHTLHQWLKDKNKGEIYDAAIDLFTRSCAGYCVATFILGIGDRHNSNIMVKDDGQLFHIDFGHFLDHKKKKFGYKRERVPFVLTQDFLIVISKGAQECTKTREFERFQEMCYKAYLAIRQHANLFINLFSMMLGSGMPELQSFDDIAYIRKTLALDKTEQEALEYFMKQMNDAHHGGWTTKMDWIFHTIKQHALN
Particulars: PIK3CA(E545K); 1 uM. An outline of the steps:
as §1

Assay [6] has as its target T6, kinases of the scanMAX Kinase assay panel (Homo sapiens, UniProt Q02763).
T6 construct: purchased DiscoverX Co. (contract measurement) scanMAX Kinase assay panel
Conditions: kinase TIE2; 1 uM in DMSO. An outline of the steps: as §1

Assay [7] concerns the target T7, kinases of the scanMAX Kinase assay panel (Homo sapiens, UniProt P00519, F317L).
T7 construct: purchased DiscoverX Co. (contract measurement) scanMAX Kinase assay panel
Particulars: 1 uM. An outline of the steps: as §1

Setting [8] is: kinase RSK4(Kin.Dom.1-N-terminal), read-out: % control, RSK4(Kin.Dom.1-N-terminal).
The mark [9] stands for this setting: kinase RSK4(Kin.Dom.2-C-terminal), read-out: % control, RSK4(Kin.Dom.2-C-terminal).

Each structure is given as a SMILES string. Like-named read-outs stand apart in the source and are kept apart here.

T6 sequence (Q02763 23-1124): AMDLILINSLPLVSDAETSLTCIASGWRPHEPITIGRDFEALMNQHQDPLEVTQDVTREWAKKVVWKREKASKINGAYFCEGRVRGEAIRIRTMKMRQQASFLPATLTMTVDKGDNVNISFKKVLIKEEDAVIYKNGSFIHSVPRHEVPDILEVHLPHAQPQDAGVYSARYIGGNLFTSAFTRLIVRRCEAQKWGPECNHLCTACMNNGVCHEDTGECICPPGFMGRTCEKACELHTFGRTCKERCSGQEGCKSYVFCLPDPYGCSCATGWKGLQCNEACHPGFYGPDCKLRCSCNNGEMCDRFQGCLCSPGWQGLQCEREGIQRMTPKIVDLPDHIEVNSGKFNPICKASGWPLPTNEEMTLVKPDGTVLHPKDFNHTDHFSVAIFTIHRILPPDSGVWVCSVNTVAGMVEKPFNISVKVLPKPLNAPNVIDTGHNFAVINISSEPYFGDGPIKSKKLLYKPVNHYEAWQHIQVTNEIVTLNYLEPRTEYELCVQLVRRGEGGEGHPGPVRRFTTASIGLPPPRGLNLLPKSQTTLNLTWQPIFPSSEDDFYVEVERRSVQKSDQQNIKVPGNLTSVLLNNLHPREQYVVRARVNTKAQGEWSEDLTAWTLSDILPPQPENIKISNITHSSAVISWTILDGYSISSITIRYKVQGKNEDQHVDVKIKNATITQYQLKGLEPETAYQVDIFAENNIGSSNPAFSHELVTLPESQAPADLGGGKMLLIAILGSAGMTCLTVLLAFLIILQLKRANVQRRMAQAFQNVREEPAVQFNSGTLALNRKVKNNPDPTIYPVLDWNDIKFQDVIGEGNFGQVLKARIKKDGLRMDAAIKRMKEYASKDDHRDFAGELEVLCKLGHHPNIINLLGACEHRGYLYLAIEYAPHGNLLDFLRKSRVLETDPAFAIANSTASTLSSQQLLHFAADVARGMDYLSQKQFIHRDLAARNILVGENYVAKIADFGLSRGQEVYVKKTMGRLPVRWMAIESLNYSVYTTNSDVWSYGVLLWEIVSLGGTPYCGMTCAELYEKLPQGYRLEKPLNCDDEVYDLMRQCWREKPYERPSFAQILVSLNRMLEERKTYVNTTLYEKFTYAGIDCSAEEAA
T7 sequence (P00519 whole entry F317L): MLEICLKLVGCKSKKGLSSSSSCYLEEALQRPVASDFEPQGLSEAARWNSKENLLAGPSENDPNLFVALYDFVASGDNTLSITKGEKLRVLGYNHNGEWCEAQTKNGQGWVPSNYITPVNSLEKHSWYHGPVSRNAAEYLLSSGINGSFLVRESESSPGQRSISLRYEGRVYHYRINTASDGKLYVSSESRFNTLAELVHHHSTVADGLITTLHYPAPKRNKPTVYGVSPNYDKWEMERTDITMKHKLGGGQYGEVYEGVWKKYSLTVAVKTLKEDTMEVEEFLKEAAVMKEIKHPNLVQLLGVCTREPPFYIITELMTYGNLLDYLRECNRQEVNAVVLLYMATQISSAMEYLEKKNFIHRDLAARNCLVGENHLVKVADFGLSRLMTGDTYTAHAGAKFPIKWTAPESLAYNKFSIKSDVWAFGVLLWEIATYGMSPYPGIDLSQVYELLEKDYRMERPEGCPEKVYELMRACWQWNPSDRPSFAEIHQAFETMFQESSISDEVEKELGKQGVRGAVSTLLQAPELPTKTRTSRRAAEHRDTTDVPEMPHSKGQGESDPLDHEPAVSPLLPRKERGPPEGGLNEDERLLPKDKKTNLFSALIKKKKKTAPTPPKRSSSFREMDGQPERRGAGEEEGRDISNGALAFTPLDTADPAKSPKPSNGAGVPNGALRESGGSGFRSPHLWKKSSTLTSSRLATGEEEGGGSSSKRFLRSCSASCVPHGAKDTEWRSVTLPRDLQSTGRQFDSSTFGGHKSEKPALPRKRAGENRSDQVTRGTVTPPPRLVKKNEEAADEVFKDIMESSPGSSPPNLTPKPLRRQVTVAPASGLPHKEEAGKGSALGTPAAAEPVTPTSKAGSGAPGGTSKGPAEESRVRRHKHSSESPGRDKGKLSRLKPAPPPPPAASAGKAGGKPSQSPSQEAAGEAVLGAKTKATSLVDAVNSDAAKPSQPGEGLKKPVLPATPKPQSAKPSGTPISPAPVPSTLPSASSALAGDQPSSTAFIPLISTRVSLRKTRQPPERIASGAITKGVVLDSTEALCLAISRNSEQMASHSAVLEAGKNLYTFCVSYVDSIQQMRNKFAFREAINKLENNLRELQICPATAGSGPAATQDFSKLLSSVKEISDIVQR

For the compound `CNc1nc(Nc2ccc(C(=O)N3CCOCC3)cc2OC)nc2[nH]cc(C#N)c12` [Example 1, 2-((2-methoxy-4-(morpholine-4-carbonyl)phenyl)amino)-4-(methylamino)-7H-pyrrolo[2,3-d]pyrimidine-5-carbonitrile], the remaining binding at 1 µM in assay [1] (setting [8]) came out at 79%; in assay [1] (setting [9]), 77%; in assay [2], 100%; in assay [3], 100%; in assay [4], 69%; in assay [5], 80%. Also, the remaining binding at 1 µM in assay [6] came out at 92%; in assay [7] (ABL1(F317L)-nonphosphorylated) it was 91%; in assay [7] (ABL1(F317L)-phosphorylated), 48%.
Consider `CC1(Nc2nc(Nc3cnn([C@H]4CCN(C5COC5)C[C@@H]4F)c3Cl)nc3[nH]cc(C#N)c23)CC1` [Example 52, 2-((5-chloro-1-((3S,4S)-3-fluoro-1-(oxetane-3-yl)piperidine-4-yl)-1H-pyrazole-4-yl)amino)((1-methylcyclopropyl)amino)-7H-pyrrolo[2,3-d]pyrimidine-5-carbonitrile], for which the remaining binding at 1 µM in assay [1] (setting [8]) stood at 7.1%; in assay [1] (setting [9]), 75%; in assay [2], 85%; in assay [3], 94%; in assay [4], 91%; in assay [5], 68%. Besides, the remaining binding at 1 µM in assay [6] is 46%; in assay [7] (ABL1(F317L)-nonphosphorylated), 16%; in assay [7] (ABL1(F317L)-phosphorylated), 0%.
For the compound `CCNc1nc(Nc2ccc(C(=O)N3CCC(N4CCOCC4)CC3)cc2OC)nc2[nH]cc(C(F)(F)F)c12` [Example 104, (4-((4-(ethylamino)-5-(trifluoromethyl)-7H-pyrrolo[2,3-d]pyrimidine-2-yl)amino)-3-methoxyphenyl)(4-morpholinopiperidine-1-yl)methanone], the remaining binding at 1 µM in assay [1] (setting [8]) turned out to be 95%; in assay [1] (setting [9]), 97%; in assay [2], 100%; in assay [3], 91%; in assay [4], 100%; in assay [5], 90%. Moreover, the values for the remaining binding at 1 µM in assay [6], in assay [7] (ABL1(F317L)-nonphosphorylated) and in assay [7] (ABL1(F317L)-phosphorylated) were 100%, 74% and 35%, respectively.
